Test results: patent US20020128434A1, “Alpha-(1,3-dicarbonylenol ether) methyl ketones as cysteine protease inhibitors” (priority 1993, published 2002)
≈ marks a conversion by molar mass, not a printed value. Structures can show the parent of a compound that is named as a salt.

Tests used:
[1] = system: calpain (Calcium Activated Neutral Protease); experiment: Calpain inhibition; type: biochemical; conditions: incubated 30 minutes at 37° C.; tested at 20 μM, 2 μM, 200 nM
Protocol: The percent inhibition of one inhibitor, Acetyl-Leucyl-Leucyl-Phenylalanyl-α-(4-oxy-dihydrofuran-2-one) methyl ketone, on calpain (Calcium Activated Neutral Protease) was determined as follows. A 50 mM Hepes, 10 mM calcium chloride, 5 mM cysteine, 1 mM β-mercaptoethanol, pH 7.5 buffer solution was prepared. The enzyme was activated for 1 minute in the buffer solution at room temperature. Inhibitor was prepared as stock solution in dimethylformamide. Inhibitor and enzyme/buffer were incubated for 30 minutes at 37° C. Final concentrations of inhibitor were 20 μM, 2 μM, and 200 nM. Enzyme activity was followed with 200 μM Boc-Valnyl-Leucyl-Lysine-AFC substrate by the release of free fluorescent detecting group over minutes at 37° C., as compared to the control.

physchem = conditions: 20 °C, water, thermodynamic from solid
[2] = biological target: T1, Cathepsin B, purified from human liver (Homo sapiens, UniProt P07858); experiment: In vitro evaluation of inhibitors with purified cathepsin B; type: biochemical; conditions: purified cathepsin B; read-out: IC50 Cat B
T1 construct: Cathepsin B, purified from human liver; purchased Enzyme Systems Products (Dublin, Calif.); host or cells: human liver (tissue-purified)
Protocol: Enzyme: Cathepsin B, purified from human liver, is from Enzyme Systems Products (Dublin, Calif.). The activity is 50 mU per ml at 30° C., in 52 mM sodium phosphate, pH 6.2, 31 mM DTT, 2.1 mM EDTA, with 0.2 mM Z—Arg—Arg-7-amino-4-trifluoromethyl-coumarin as a substrate. Specific activity is 8330 mU per mg protein. (1 mU=1 nmol per min.)
Substrate Boc—Leu—Arg—Arg-7-amino-4-trifluoromethyl-coumarin-2HBr is from Enzyme Systems Products (Dublin, Calif.) and is known to be a specific substrate for cathepsin B. A 20 mM solution is made in DMF and stored at […].
Candidate inhibitors are dissolved in DMF and diluted to 20 mM and stored at […]. Dilutions are made in assay buffer.
The percent inhibition and the inhibitor concentration at which the enzyme is 50% inhibited (IC50) are determined as follows. Five μl of assay buffer (50 mM potassium phosphate pH 6.2, 2 mM EDTA, 5 mM DTT) on ice for 30 min. The inhibition is initiated by the addition of […] inhibitor each to the 480 μl aliquots. The 485 μl aliquot with enzyme is used as a control and thus receives no inhibitor. The enzyme/inhibitor mixtures are incubated 10 min. on ice and assayed for cathepsin B activity as follows:
Cathepsin B assay: To 490 μl of pre-incubated inhibitor/enzyme mixtures in assay buffer in 0.5 ml cuvette at 37° is added 10 μl of the substrate. Final inhibitor concentrations become 2000 nM, 200 nM, and 20 nM for the 200 μM, 20 μM and 2 μM stock concentrations, respectively. Activity is followed by release of free AFC over 5 min. The change in fluorescence is (fluorescence units at t=6)−(fluorescence units at t=1) with a Perkin-Elmer LS-5B spectrofluorometer (ex=400 nm, em=505 nm). The percent inhibition is determined by comparing the change in fluorescence units of the three sample concentrations of inhibited enzyme to the change in fluorescence units of the control enzyme. The percent inhibition is calculated as:
100−(fl. units of sample/fl. units of control×100).
The IC50 is ascertained by plotting percent inhibition vs. inhibitor concentration on the log scale. The IC50 is the concentration of the inhibitor (nM) at which the enzyme is inhibited by 50%.

malarial inhibition = experiment: Another test of malarial inhibition
Cathepsin H = biological target: T2, Cathepsin H (Homo sapiens, UniProt P09668); experiment: Cathepsin H inhibition; type: biochemical
T2 sequence (P09668 98-335): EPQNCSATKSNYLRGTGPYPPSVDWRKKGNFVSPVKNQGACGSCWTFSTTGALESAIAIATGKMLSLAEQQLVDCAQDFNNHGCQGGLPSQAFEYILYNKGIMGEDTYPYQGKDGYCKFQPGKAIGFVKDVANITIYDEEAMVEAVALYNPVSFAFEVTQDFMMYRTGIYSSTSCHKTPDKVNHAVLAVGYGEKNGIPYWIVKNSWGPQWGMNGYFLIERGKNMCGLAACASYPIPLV

## CC(=O)N[C@@H](CC(C)C)C(=O)N[C@@H](CC(C)C)C(=O)N[C@@H](Cc1ccccc1)C(=O)COC1=CC(=O)OC1 [Acetyl-Leucyl-Leucyl-Phenylalanyl-α-(4-oxy-dihydrofuran-2-one) methyl ketone]
[1]
  concentration at which inhibitor showed activity against calpain: less than 2 μM

## O=C1C=C(OCC(=O)[C@H](CCc2ccccc2)NC(=O)[C@H](Cc2ccccc2)NC(=O)N2CCOCC2)CO1 [Compound 12, N-Morpholinecarbonyl-L-phenylalanyl-L-homophenylalanyl-α-(4-oxy-dihydrofuran-2-one) methyl ketone]
physchem
  solubility: 277 µg/mL (≈ 517 µM)
[2]
  IC50: 10 nM

## CCC1OC(=O)C(OCC(=O)[C@H](CCc2ccccc2)NC(=O)[C@H](Cc2ccccc2)NC(=O)N2CCOCC2)=C1C (stereo partly drawn) [Compound A2, N-Morpholinecarbonyl-L-phenylalanyl-L-homophenylalanyl-α-(3-oxy-5-ethyl-4-methyl 2(5H)furanone) methyl ketone]
Malarial inhibition
  malarial inhibition: particularly effective

## N[C@@H](CCc1ccccc1)C(=O)COC1=CC(=O)OC1 [L-Homophenyl-α-(4-oxy-dihydrofuran-2-one)methyl ketone hydrochloride]
Cathepsin H
  IC50: 251 nM

## Cc1cc(OCC(=O)[C@@H](N)CCc2ccccc2)cc(=O)o1 [L-Homophenylalanyl-α-(4-oxy-(6-methyl-2-pyrone)methyl ketone]
Cathepsin H
  IC50: 118 nM
